# Measurements as given in patent US20190117770A1, “USES OF IMMUNOCONJUGATES TARGETING CD138” (Biotest AG, priority 2011, published 2019).
# B1: IMGN242: analog of cantuzumab mertansine, huC242-DM4 (conjugate, chains of the INN, looked up)
# VH: QVQLVQSGAEVKKPGETVKISCKASDYTFTYYGMNWVKQAPGQGLKWMGWIDTTTGEPTYAQKFQGRIAFSLETSASTAYLQIKSLKSEDTATYFCARRGPYNWYFDVWGQGTTVTVSS
# VL: DIVMTQSPLSVPVTPGEPVSISCRSSKSLLHSNGNTYLYWFLQRPGQSPQLLIYRMSNLVSGVPDRFSGSGSGTAFTLRISRVEAEDVGVYYCLQHLEYPFTFGPGTKLELK
# modifications: DM4 maytansinoid conjugate
# B2: SGN-75: anti-CD70; MMAF (SEATTLE GENETICS) (conjugate, chains of the INN, looked up)
# VH: QVQLVQSGAEVKKPGASVKVSCKASGYTFTNYGMNWVRQAPGQGLKWMGWINTYTGEPTYADAFKGRVTMTRDTSISTAYMELSRLRSDDTAVYYCARDYGDYGMDYWGQGTTVTVSS
# VL: DIVMTQSPDSLAVSLGERATINCRASKSVSTSGYSFMHWYQQKPGQPPKLLIYLASNLESGVPDRFSGSGSGTDFTLTISSLQAEDVAVYYCQHSREVPWTFGQGTKVEIK
# modifications: MMAF conjugate
# Columns and labels:
# [1] = literature; cited from earlier work
# [2] = system: primary mammary tumor of a patient; experiment: Mammary carcinoma xenograft; format: in vivo, NMRI (nude) mice
# [3] = system: human derived breast cancer model with CD138 IHC score 2-3; experiment: Breast cancer model, CD138 IHC score 2-3; format: in vivo, NMRI nude mice; conditions: 10 mg/kg
# Text: The results are shown in terms of the effect on the mean relative tumor volume in the model relative to an intravenous administration of PBS. For the calculation of the median relative tumor volume on day, see FIG. 33.
# [4] = system: human derived breast cancer model with CD138 IHC score 1-2; experiment: Breast cancer model, CD138 IHC score 1-2; format: in vivo, NMRI nude mice; conditions: 10 mg/kg
# Text: No difference in the treatment regimens was observed. The results are shown in terms of the effect on the mean relative tumor volume in the model relative to an intravenous administration of PBS. For the calculation of the median relative tumor volume on day, see FIG. 33.
# [5] = system: primary pancreatic tumor; experiment: Example 9 xenograft (FIG. 38); format: in vivo, NMRI (nude) mice; conditions: 10 mg/kg; treatment period and treatment free period
# Text: The results are shown in terms of the effect on the mean relative tumor volume.
# [6] = system: CD138 expression; experiment: Effect of lenalidomide on CD138 expressing cells in vitro; conditions: different cell lines, 24 h incubation (FIG. 32)
# [7] = system: RPMI 8226; experiment: Synergy determination in cell lines (Chou and Talalay); format: cell-based; conditions: drug in combination with BT062
# Protocol: Combination studies in xenograph mouse models were preceded by studies in cell lines. […] Here, IC50 values for the cytotoxic effects for each drug and each cell line are calculated, and then IC50 ratios for each drug pair. The cells were then exposed to dilution series of either these drug mixtures, or the drugs alone. Experimental data were analyzed using the CompuSyn software (ComboSyn, Inc., Paramus, N.J.). Combination Indexes (CI) for each independent experiment were calculated and reported separately. In the analysis, CI less than 1, equal to 1 and more than 1 indicates synergy, additivity and antagonism, respectively. According to the classification of T. C.
# [8] = system: MOLP8 multiple myeloma cells; experiment: MOLP8 xenograft, combination BT062 and VELCADE; format: in vivo, mice
# Text: The ACTIVITY RATING is another measurement for the effects of a combination. This rating is based on the Log10 cell kill
# where (T-C) or tumor growth delay, is the median time in days required for the treatment group (T) and the control group (C) tumours, to reach a predetermined size (600 mm^3).
# [9] = Clinical trials of other immunoconjugates (literature); format: in vivo, human; conditions: assuming 70 kg and 1.9 m^2 body surface area
# [10] = cited from earlier work
molecule,measurement,setting,value
"COc1cc2cc(c1Cl)N(C)C(=O)C[C@H](OC(=O)[C@H](C)N(C)C(=O)CCS)[C@]1(C)O[C@H]1[C@H](C)[C@@H]1C[C@@](O)(NC(=O)O1)[C@H](OC)/C=C/C=C(\C)C2 [DM1, N^2-deacetyl-N^2-(3-mercapto-1-oxopropyl)-maytansine]","cytotoxicity, fold more cytotoxic than maytansine",[1],3- to 10 fold
"COc1cc2cc(c1Cl)N(C)C(=O)C[C@H](OC(=O)[C@H](C)N(C)C(=O)CCC(C)(C)S)[C@]1(C)O[C@H]1[C@H](C)[C@@H]1C[C@@](O)(NC(=O)O1)[C@H](OC)/C=C/C=C(\C)C2 [DM4, N^2′-deacetyl-N^2′-(4-methyl-4-mercapto-1-oxopentyl)-maytansine, reference compound]",tumor response,[2]; amount corresponding to that in 4 mg BT062,did not result in tumor response
"CC(=O)O[C@@]12CO[C@@H]1C[C@H](O)[C@@]1(C)C(=O)[C@H](O)C3=C(C)[C@@H](OC(=O)[C@H](O)[C@@H](NC(=O)OC(C)(C)C)c4ccccc4)C[C@@](O)([C@@H](OC(=O)c4ccccc4)[C@H]21)C3(C)C [Docetaxel, reference compound]",tumor response,[3],response
same,tumor response,[4],did not respond
same,tumor response,[5],complete remission
Nc1cccc2c1CN(C1CCC(=O)NC1=O)C2=O (centres unmarked) [Lenalidomide],CD138 expression,[6],concentration dependent CD138 decrease
same,Estimate of synergistic result,[7],Synergistic
"CC(=O)O[C@H]1C(=O)[C@@]2(C)[C@H]([C@H](OC(=O)c3ccccc3)[C@]3(O)C[C@H](OC(=O)[C@H](O)[C@@H](NC(=O)c4ccccc4)c4ccccc4)C(C)=C1C3(C)C)[C@]1(OC(C)=O)CO[C@@H]1C[C@@H]2O [Taxol, Paclitaxel, reference compound]",tumor response,[2]; 10 mg/kg,only a minor tumor growth delay
"CC(C)C[C@H](NC(=O)[C@H](Cc1ccccc1)NC(=O)c1cnccn1)B(O)O [Velcade, bortezomib, reference compound]",effect on the tumor volume,[8]; VELCADE treatment alone (FIG. 31),no effect
same,Tumor free survivors day 67,[8]; Velcade 1 mg/kg,0/6
same,log cell kill,[8]; Velcade 1 mg/kg,0.0
COc1cc2cc(c1Cl)N(C)C(=O)C[C@H](OC(=O)[C@H](C)N(C)C(C)=O)[C@]1(C)O[C@H]1[C@H](C)[C@@H]1C[C@@](O)(NC(=O)O1)[C@H](OC)/C=C/C=C(\C)C2 [maytansine],"cytotoxicity, fold higher than Vinca alkaloids or taxol",[1],200-1000 fold
SAR3419,Corresponds to total concentration of,[9],110 mg
same,patients with a response,[10]; 22 patients at the MTD (55 mg/m^2),36%
same,patients achieving an objective response,"[10]; 38 patients at 20 mg/m^2 or higher, weekly, B-cell NHL",32%
same,"MTD, single administration every three weeks",[10]; literature,160 mg/m^2
SGN-35,Corresponds to total concentration of,[9],84 mg
same,"Once weekly regimen, dose administered",[10]; literature,Up to 1.2 mg/kg
B1,subjects experiencing dose-limiting toxicity,"[10]; 223 mg/m^2 once every 3 weeks, second cycle",2 of 6
B2,"MTD, once weekly regimen",[10]; literature,not been reached)
